Measurements from patent US20230017045A1, “PYRIDINE AND PYRIMIDINE CARBOXYLATE HERBICIDES AND METHODS OF USE THEREOF” (Dow AgroSciences LLC, priority 2017, published 2023).
Read-outs that look alike come from different tables or passages of the source.

Tested on: test plant species
Experiment: Post-emergent herbicidal activity test (greenhouse, foliar spray, visual growth reduction)
Assay type: in vivo
Conditions: post-emergence, 336 h, 140 g ai/ha
Outline: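 Visual percent injury (0-100) rated 14 d after treatment, relative to nontreated and solvent-blank plants. Test plants at first or second true leaf stage received an overhead track-sprayer application at 187 L/ha. Compounds were formulated in aqueous acetone/DMSO carrier containing crop oil concentrate and X-77 surfactant.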

[1] = ECHCG: barnyardgrass (Echinochloa crus-galli), 14 days after application, read-out: Visual Growth Reduction (%) 14 Days After Application, ECHCG
[2] = IPOHE: ivy-leaf morning glory (Ipomoea hederacea), 14 days after application, read-out: Visual Growth Reduction (%) 14 Days After Application, IPOHE
[3] = KCHSC: kochia (Bassia scoparia), 14 days after application, read-out: Visual Growth Reduction (%) 14 Days After Application, KCHSC
[4] = ORYSA: rice (Oryza sativa), 14 days after application, read-out: Visual Growth Reduction (%) 14 Days After Application, ORYSA
[5] = SETFA: giant foxtail (Setaria faberi), 14 days after application, read-out: Visual Growth Reduction (%) 14 Days After Application, SETFA
[6] = SORVU: grain sorghum (Sorghum vulgare), 14 days after application, read-out: Visual Growth Reduction (%) 14 Days After Application, SORVU
[7] = STEME: common chickweed (Stellaria media), 14 days after application, read-out: Visual Growth Reduction (%) 14 Days After Application, STEME
[8] = TRZAS: wheat, spring (Triticum aestivum), 14 days after application, read-out: Visual Growth Reduction (%) 14 Days After Application, TRZAS
[9] = blackgrass (Alopecurus myosuroides), 14 Days After Application, read-out: Visual Growth Reduction (%) ALOMY
[10] = canada thistle (Cirsium arvense), 14 Days After Application, read-out: Visual Growth Reduction (%) CIRAR
[11] = crabgrass (Digitaria sanguinalis), 14 Days After Application, read-out: Visual Growth Reduction (%) DIGSA
[12] = lambsquarters (Chenopodium album), 14 Days After Application, read-out: Visual Growth Reduction (%) CHEAL
[13] = redroot pigweed (Amaranthus retroflexus), 14 Days After Application, read-out: Visual Growth Reduction (%) AMARE
[14] = wild oat (Avena fatua), 14 Days After Application, read-out: Visual Growth Reduction (%) AVEFA
[15] = yellow nutsedge (Cyperus esculentus), 14 Days After Application, read-out: Visual Growth Reduction (%) CYPES

| SMILES | pest or weed control at 140 g/ha [1] [%] | pest or weed control at 140 g/ha [2] [%] | pest or weed control at 140 g/ha [3] [%] | pest or weed control at 140 g/ha [4] [%] | pest or weed control at 140 g/ha [5] [%] | pest or weed control at 140 g/ha [6] [%] | pest or weed control at 140 g/ha [7] [%] | pest or weed control at 140 g/ha [8] [%] | pest or weed control at 140 g/ha [9] [%] | pest or weed control at 140 g/ha [10] [%] | pest or weed control at 140 g/ha [11] [%] | pest or weed control at 140 g/ha [12] [%] | pest or weed control at 140 g/ha [13] [%] | pest or weed control at 140 g/ha [14] [%] | pest or weed control at 140 g/ha [15] [%] | also measured |
| --- | --- | --- | --- | --- | --- | --- | --- | --- | --- | --- | --- | --- | --- | --- | --- | --- |
| COC(=O)c1nc(-c2ccc(C(F)(F)F)c(OC)c2)c(F)cc1Cl [F295, Methyl 3-chloro-5-fluoro-6-(3-methoxy-4-(trifluoromethyl)phenyl)picolinate] | 0 to 29 | 60 to 74 | 0 to 29 | 0 to 29 | 0 to 29 | 0 to 29 | 0 to 29 | 0 to 29 | 0 to 29 | 60 to 74 | 45 to 59 | 30 to 44 | 0 to 29 | 0 to 29 | 75 to 84 |  |
| O=C(OCc1ccccc1C(F)(F)F)c1nc(-c2ccc(C(F)(F)F)cc2Cl)ccc1Cl [F380, 2-(Trifluoromethyl) benzyl 3-chloro-6-(2-chloro-4-(trifluoromethyl)phenyl)picolinate] | 75 to 84 | 95 to 100 | 75 to 84 | 0 to 29 | 95 to 100 | 95 to 100 | 0 to 29 | 60 to 74 | 45 to 59 | 85 to 94 | 95 to 100 | 95 to 100 | 95 to 100 | 60 to 74 | 0 to 29 |  |
| COC(=O)c1nc(-c2ccc(C=O)c(F)c2OC)c(F)cc1Cl [F357, methyl 3-chloro-5-fluoro-6-(3-fluoro-4-formyl-2-methoxyphenyl)picolinate] | 0 to 29 | 0 to 29 | 0 to 29 | 0 to 29 | 0 to 29 | 0 to 29 | 0 to 29 | 0 to 29 | 0 to 29 | 0 to 29 | 0 to 29 | 0 to 29 | 0 to 29 | 0 to 29 | 0 to 29 |  |
| O=C(O)c1nc(-c2cccc3c2OC(F)(F)O3)ccc1Cl [F255, 3-Chloro-6-(2,2-difluorobenzo[d][1,3]dioxol-4-yl)picolinic acid] | 0 to 29 | 0 to 29 | 0 to 29 | 0 to 29 | 0 to 29 | 0 to 29 | 0 to 29 | 0 to 29 | 0 to 29 | 0 to 29 | 0 to 29 | 0 to 29 | 0 to 29 | 0 to 29 | 0 to 29 |  |
| C=Cc1cc(-c2nc(C(=O)O)c(Cl)cc2F)c(Cl)cc1C(F)(F)F [F350, 3-Chloro-6-(2-chloro-4-(trifluoromethyl)-5-vinylphenyl)-5-fluoropicolinic acid] | 0 to 29 | 85 to 94 | 85 to 94 | 0 to 29 | 0 to 29 | 0 to 29 | 0 to 29 | 0 to 29 | 0 to 29 |  | 30 to 44 | 60 to 74 | 30 to 44 | 0 to 29 | 0 to 29 |  |
| COC(=O)c1nc(-c2ccc3cc[nH]c3c2F)ccc1Cl [F69, Methyl 3-chloro-6-(7-fluoro-1H-indol-6-yl)picolinate] | 0 to 29 | 0 to 29 |  | 0 to 29 |  | 0 to 29 | 0 to 29 |  |  |  |  |  |  |  |  | pest or weed control at 140 g/ha (ALOMY: blackgrass (Alopecurus myosuroides), 14 days after application, read-out: Visual Growth Reduction (%) 14 Days After Application, ALOMY): 0 to 29%; pest or weed control at 140 g/ha (AMARE: redroot pigweed (Amaranthus retroflexus), 14 days after application, read-out: Visual Growth Reduction (%) 14 Days After Application, AMARE): 0 to 29%; pest or weed control at 140 g/ha (AVEFA: wild oat (Avena fatua), 14 days after application, read-out: Visual Growth Reduction (%) 14 Days After Application, AVEFA): 0 to 29%; pest or weed control at 140 g/ha (CHEAL: lambsquarters (Chenopodium album), 14 days after application, read-out: Visual Growth Reduction (%) 14 Days After Application, CHEAL): 0 to 29%; pest or weed control at 140 g/ha (CIRAR: canada thistle (Cirsium arvense), 14 days after application, read-out: Visual Growth Reduction (%) 14 Days After Application, CIRAR): 0 to 29%; pest or weed control at 140 g/ha (CYPES: yellow nutsedge (Cyperus esculentus), 14 days after application, read-out: Visual Growth Reduction (%) 14 Days After Application, CYPES): 0 to 29%; pest or weed control at 140 g/ha (DIGSA: crabgrass (Digitaria sanguinalis), 14 days after application, read-out: Visual Growth Reduction (%) 14 Days After Application, DIGSA): 0 to 29% |
| COC(=O)c1nc(-c2ccc(Cl)cc2F)ccc1Cl [F270, Methyl 3-chloro-6-(4-chloro-2-fluorophenyl) picolinate] | 0 to 29 | 95 to 100 | 75 to 84 | 0 to 29 | 0 to 29 | 85 to 94 | 30 to 44 | 45 to 59 | 0 to 29 | 75 to 84 | 85 to 94 | 85 to 94 | 45 to 59 | 0 to 29 | 45 to 59 |  |
| COC(=O)c1nc(-c2ccc(C(F)(F)F)c(F)c2F)c(F)cc1Cl [F310, Methyl 3-chloro-6-(2,3-difluoro-4-(trifluoromethyl)phenyl)-5-fluoropicolinate] | 60 to 74 | 95 to 100 | 45 to 59 | 0 to 29 | 85 to 94 | 95 to 100 | 0 to 29 | 60 to 74 | 45 to 59 | 95 to 100 | 95 to 100 | 95 to 100 | 95 to 100 | 60 to 74 | 75 to 84 |  |
| COC(=O)c1nc(-c2cc3c(cc2OC)OC(F)(F)O3)c(F)cc1Cl [F333, Methyl 3-chloro-6-(2,2-difluoro-6-methoxybenzo[d][1,3]dioxol-5-yl)-5-fluoropicolinate] | 30 to 44 | 95 to 100 | 30 to 44 | 0 to 29 | 30 to 44 | 85 to 94 | 0 to 29 | 45 to 59 | 0 to 29 |  | 60 to 74 | 0 to 29 | 30 to 44 | 0 to 29 | 0 to 29 |  |
| COC(=O)c1nc(-c2cc(F)c(C(F)(F)F)cc2Cl)ccc1Cl [F243, Methyl 3-chloro-6-(2-chloro-5-fluoro-4-(trifluoromethyl)phenyl)picolinate] | 95 to 100 | 95 to 100 | 75 to 84 | 0 to 29 | 95 to 100 | 95 to 100 | 0 to 29 | 85 to 94 | 85 to 94 | 95 to 100 | 95 to 100 | 95 to 100 | 95 to 100 | 75 to 84 | 85 to 94 |  |
